Source: patent US20240300932A1, “N-PHENYLIMINE DERIVATIVE AND PREPARATION METHOD AND USE THEREOF” (Guizhou University, priority 2023, published 2024)

Tests used:
Assay in all cases: Post-emergence herbicidal activity test (stem and leaf spray, pot culture)
Type in all cases: in vivo
Details in all cases: 3 weeks after spraying
Setaria viridis = test system: Setaria viridis
Method in brief: (§1)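 Activity is given as a 0–5 grade of fresh weight growth control, scored three weeks after a single stem-and-leaf spray. Weeds in farmland loam were treated at the 2- to 3-leaf stage at 10, 5 and 2.5 g/mu, with methyl oleate added as synergist.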

Portulaca oleracea = test system: Portulaca oleracea
Method in brief: as §1

Amaranthus retroflexus = test system: Amaranthus retroflexus
Method in brief: as §1

Abutilon theophrasti = test system: Abutilon theophrasti
Method in brief: as §1

Echinochloa crusgalli = test system: Echinochloa crusgalli
Method in brief: as §1

Trifoliumre pensL. = test system: Trifoliumre pensL.
Method in brief: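 Rates of 10, 5 and 2.5 g/mu were applied in a single spray-tower treatment to 2–3-leaf plants, thinned to 10 per pot. Formulation: acetone solution, Tween 80, 1.5 L/ha methyl oleate synergist. Weed response assessed after 3 further greenhouse weeks; mean of three experiments.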

SMILES | Post-emergence herbicidal activity, S. viridis (grade) (Setaria viridis; dosage 2.5 g/mu) | Post-emergence herbicidal activity, S. viridis (grade) (Setaria viridis; dosage 5 g/mu) | Post-emergence herbicidal activity, S. viridis (grade) (Setaria viridis; dosage 10 g/mu) | Post-emergence herbicidal activity, P. oleracea (grade) (Portulaca oleracea; dosage 2.5 g/mu) | Post-emergence herbicidal activity, P. oleracea (grade) (Portulaca oleracea; dosage 5 g/mu) | Post-emergence herbicidal activity, P. oleracea (grade) (Portulaca oleracea; dosage 10 g/mu) | Post-emergence herbicidal activity, A. retroflexus (grade) (Amaranthus retroflexus; dosage 2.5 g/mu) | Post-emergence herbicidal activity, A. retroflexus (grade) (Amaranthus retroflexus; dosage 5 g/mu) | Post-emergence herbicidal activity, A. retroflexus (grade) (Amaranthus retroflexus; dosage 10 g/mu) | Post-emergence herbicidal activity, A. theophrasti (grade) (Abutilon theophrasti; dosage 2.5 g/mu) | Post-emergence herbicidal activity, A. theophrasti (grade) (Abutilon theophrasti; dosage 5 g/mu) | Post-emergence herbicidal activity, A. theophrasti (grade) (Abutilon theophrasti; dosage 10 g/mu) | Post-emergence herbicidal activity, E. crusgalli (grade) (Echinochloa crusgalli; dosage 2.5 g/mu) | Post-emergence herbicidal activity, E. crusgalli (grade) (Echinochloa crusgalli; dosage 5 g/mu) | Post-emergence herbicidal activity, E. crusgalli (grade) (Echinochloa crusgalli; dosage 10 g/mu) | Post-emergence herbicidal activity, Trifoliumre pensL. (grade) (Trifoliumre pensL.; dosage 2.5 g/mu) | Post-emergence herbicidal activity, Trifoliumre pensL. (grade) (Trifoliumre pensL.; dosage 5 g/mu) | Post-emergence herbicidal activity, Trifoliumre pensL. (grade) (Trifoliumre pensL.; dosage 10 g/mu)
O=C1C2=C(CCCC2)C(=O)N1c1ccc(Cl)c(OCc2nc(-c3cc(F)cc(Br)c3)no2)c1F [Compound A13, 2-(3-(3-(3-(3-bromo-5-fluorophenyl)-1,2,4-oxadiazole-5-yl)methoxy)-4-chloro-2-fluorophenyl)-4,5,6,7-tetrahydro-1H-isoindole-1,3(2H)-dione] | 2 (Grade 2: the growth control rate is greater than or equal to 20% and less than 40%) | 3 (Grade 3: the growth control rate is greater than or equal to 40% and less than 60%) | 4 (Grade 4: the growth control rate is greater than or equal to 60% and less than 85%) | 4 (Grade 4: the growth control rate is greater than or equal to 60% and less than 85%) | 5 (Grade 5: the growth control rate is greater than or equal to 85%) | 5 (Grade 5: the growth control rate is greater than or equal to 85%) | 5 (Grade 5: the growth control rate is greater than or equal to 85%) | 5 (Grade 5: the growth control rate is greater than or equal to 85%) | 5 (Grade 5: the growth control rate is greater than or equal to 85%) | 5 (Grade 5: the growth control rate is greater than or equal to 85%) | 5 (Grade 5: the growth control rate is greater than or equal to 85%) | 5 (Grade 5: the growth control rate is greater than or equal to 85%) | 1 (Grade 1: the growth control rate is greater than or equal to 5% and less than 20%) | 2 (Grade 2: the growth control rate is greater than or equal to 20% and less than 40%) | 3 (Grade 3: the growth control rate is greater than or equal to 40% and less than 60%) | 4 (Grade 4: the growth control rate is greater than or equal to 60% and less than 85%) | 5 (Grade 5: the growth control rate is greater than or equal to 85%) | 5 (Grade 5: the growth control rate is greater than or equal to 85%)
O=C1C2=C(CCCC2)C(=O)N1c1cc(OCc2nc(-c3ccc(F)c(F)c3)no2)c(Cl)cc1F [Compound A14] | 2 (Grade 2: the growth control rate is greater than or equal to 20% and less than 40%) | 3 (Grade 3: the growth control rate is greater than or equal to 40% and less than 60%) | 4 (Grade 4: the growth control rate is greater than or equal to 60% and less than 85%) | 4 (Grade 4: the growth control rate is greater than or equal to 60% and less than 85%) | 5 (Grade 5: the growth control rate is greater than or equal to 85%) | 5 (Grade 5: the growth control rate is greater than or equal to 85%) | 5 (Grade 5: the growth control rate is greater than or equal to 85%) | 5 (Grade 5: the growth control rate is greater than or equal to 85%) | 5 (Grade 5: the growth control rate is greater than or equal to 85%) | 5 (Grade 5: the growth control rate is greater than or equal to 85%) | 5 (Grade 5: the growth control rate is greater than or equal to 85%) | 5 (Grade 5: the growth control rate is greater than or equal to 85%) | 1 (Grade 1: the growth control rate is greater than or equal to 5% and less than 20%) | 2 (Grade 2: the growth control rate is greater than or equal to 20% and less than 40%) | 3 (Grade 3: the growth control rate is greater than or equal to 40% and less than 60%) | 4 (Grade 4: the growth control rate is greater than or equal to 60% and less than 85%) | 5 (Grade 5: the growth control rate is greater than or equal to 85%) | 5 (Grade 5: the growth control rate is greater than or equal to 85%)
Cc1ccc(-c2noc(COc3cc(N4C(=O)C5=C(CCCC5)C4=O)c(F)cc3Cl)n2)c(Cl)c1 [Compound A15] | 2 (Grade 2: the growth control rate is greater than or equal to 20% and less than 40%) | 3 (Grade 3: the growth control rate is greater than or equal to 40% and less than 60%) | 4 (Grade 4: the growth control rate is greater than or equal to 60% and less than 85%) | 5 (Grade 5: the growth control rate is greater than or equal to 85%) | 5 (Grade 5: the growth control rate is greater than or equal to 85%) | 5 (Grade 5: the growth control rate is greater than or equal to 85%) | 5 (Grade 5: the growth control rate is greater than or equal to 85%) | 5 (Grade 5: the growth control rate is greater than or equal to 85%) | 5 (Grade 5: the growth control rate is greater than or equal to 85%) | 5 (Grade 5: the growth control rate is greater than or equal to 85%) | 5 (Grade 5: the growth control rate is greater than or equal to 85%) | 5 (Grade 5: the growth control rate is greater than or equal to 85%) | 1 (Grade 1: the growth control rate is greater than or equal to 5% and less than 20%) | 2 (Grade 2: the growth control rate is greater than or equal to 20% and less than 40%) | 3 (Grade 3: the growth control rate is greater than or equal to 40% and less than 60%) | 5 (Grade 5: the growth control rate is greater than or equal to 85%) | 5 (Grade 5: the growth control rate is greater than or equal to 85%) | 5 (Grade 5: the growth control rate is greater than or equal to 85%)
O=C1C2=C(CCCC2)C(=O)N1c1cc(OCc2nc(-c3ccc(Cl)nc3Cl)no2)c(Cl)cc1F [Compound A16] | 2 (Grade 2: the growth control rate is greater than or equal to 20% and less than 40%) | 3 (Grade 3: the growth control rate is greater than or equal to 40% and less than 60%) | 4 (Grade 4: the growth control rate is greater than or equal to 60% and less than 85%) | 4 (Grade 4: the growth control rate is greater than or equal to 60% and less than 85%) | 5 (Grade 5: the growth control rate is greater than or equal to 85%) | 5 (Grade 5: the growth control rate is greater than or equal to 85%) | 5 (Grade 5: the growth control rate is greater than or equal to 85%) | 5 (Grade 5: the growth control rate is greater than or equal to 85%) | 5 (Grade 5: the growth control rate is greater than or equal to 85%) | 5 (Grade 5: the growth control rate is greater than or equal to 85%) | 5 (Grade 5: the growth control rate is greater than or equal to 85%) | 5 (Grade 5: the growth control rate is greater than or equal to 85%) | 1 (Grade 1: the growth control rate is greater than or equal to 5% and less than 20%) | 2 (Grade 2: the growth control rate is greater than or equal to 20% and less than 40%) | 3 (Grade 3: the growth control rate is greater than or equal to 40% and less than 60%) | 4 (Grade 4: the growth control rate is greater than or equal to 60% and less than 85%) | 5 (Grade 5: the growth control rate is greater than or equal to 85%) | 5 (Grade 5: the growth control rate is greater than or equal to 85%)
